{"source": "patent US7087768B2", "about": "“Fumagillol derivatives and preparing method thereof” (Equispharm Co., Ltd., priority 2001, dated 2006)", "test_system": "HUVECs (human umbilical vein endothelial cells)", "assay": "Inhibitory effect of fumagillol derivative on HUVEC cell growth (colorimetry)", "assay_type": "cell-based", "details": "Homo sapiens", "experimental": "Using the HUVECs (human umbilical vein endothelial), the effect of the fumagillol derivative of the present invention on cell growth was evaluated.\nThe HUVECs were added to M199 medium supplemented with 20% FBS (fetal bovine serum), 100 U/ml penicillin, 100 μg/ml streptomycin, 1.5 g/L sodium bicarbonate, 0.1 mg/ml endothelial cell growth supplement (Sigma) and 0.1 mg/ml heparin (Sigma), after which the cells were incubated in an incubator at 37° C. under 5% CO2. Cells were subcultured a maximum of 8 times before being discarded.\nIn order to evaluate inhibitory activity of the fumagillin derivative on growth of HUVECs, the inventive compound was dissolved in DMSO and its concentration was adjusted from 10 mM to 1 mM. Cells were aliquotted to 96 well plates at a density of 2×10^3 cells per well and incubated for about 12–24 hours to be properly attached to the plate. Thereafter, the medium was replaced with new medium. The cells were treated with the compound obtained from each of the above examples at various concentration ranges of from 10 μM to […], and cultured for 2–3 days, followed by removing 100 μl of the medium from each well.\nColorimetry was performed to determine the extent of cell growth. The cells on each plate was added with 20 μl of aqueous one solution and then incubated at 37° C. under 5% CO2 for 2 hours. Using a 96-well plate reader, absorption was measured at 490 nm.\nAs such, a conventional TNP-470 having angiogenesis inhibitory effect was used as a control.", "key": {"[1]": {"details": "HUVEC, HUVEC growth, cultured 2–3 days with compound, absorption at 490 nm, read-out: IC50"}, "[2]": {"details": "HUVEC growth, cultured 2–3 days with compound, absorption at 490 nm, read-out: IC50"}}, "note": "Where two headings read alike, the source gives them in different places."}
{"smiles": "CCC(C)NCC(=O)O[C@@H]1CC[C@]2(CO2)[C@@H]([C@@]2(C)OC2CC=C(C)C)[C@@H]1OC", "note": "(some centres unmarked) [Ex. 45, 6-O-(sec-butylamino)acetyl fumagillol]", "values": [{"measurement": "IC50", "setting": "[1]", "result": 370, "unit": "ng/mL"}]}
{"smiles": "CCC(C)CNCC(=O)O[C@@H]1CC[C@]2(CO2)[C@@H]([C@@]2(C)OC2CC=C(C)C)[C@@H]1OC", "note": "(some centres unmarked) [Ex. 46, 6-O-(2-methyl-butylamino)acetyl fumagillol]", "values": [{"measurement": "IC50", "setting": "[1]", "result": 2600, "unit": "ng/mL"}]}
{"smiles": "CCCCCNCC(=O)O[C@@H]1CC[C@]2(CO2)[C@@H]([C@@]2(C)OC2CC=C(C)C)[C@@H]1OC", "note": "(some centres unmarked) [Ex. 48, 6-O-(pentylamino)acetyl fumagillol]", "values": [{"measurement": "IC50", "setting": "[1]", "result": 3000, "unit": "ng/mL"}]}
{"smiles": "CCCC(C)NCC(=O)O[C@@H]1CC[C@]2(CO2)[C@@H]([C@@]2(C)OC2CC=C(C)C)[C@@H]1OC", "note": "(some centres unmarked) [Ex. 49, 6-O-(1-methyl-butylamino)acetyl fumagillol]", "values": [{"measurement": "IC50", "setting": "[1]", "result": 44, "unit": "ng/mL"}]}
{"smiles": "CCC(CC)NCC(=O)O[C@@H]1CC[C@]2(CO2)[C@@H]([C@@]2(C)OC2CC=C(C)C)[C@@H]1OC", "note": "(some centres unmarked) [Ex. 50, 6-O-(1-ethyl-propylamino)acetyl fumagillol]", "values": [{"measurement": "IC50", "setting": "[1]", "result": 24, "unit": "ng/mL"}]}
{"smiles": "CCCCC(C)NCC(=O)O[C@@H]1CC[C@]2(CO2)[C@@H]([C@@]2(C)OC2CC=C(C)C)[C@@H]1OC", "note": "(some centres unmarked) [Ex. 51, 6-O-(1-methyl-pentylamino)acetyl fumagillol]", "values": [{"measurement": "IC50", "setting": "[1]", "result": 32000, "unit": "ng/mL"}]}
{"smiles": "CCC(C)C(C)NCC(=O)O[C@@H]1CC[C@]2(CO2)[C@@H]([C@@]2(C)OC2CC=C(C)C)[C@@H]1OC", "note": "(some centres unmarked) [Ex. 52, 6-O-(1,2-dimethylbutylamino)acetyl fumagillol]", "values": [{"measurement": "IC50", "setting": "[1]", "result": 290, "unit": "ng/mL"}]}
{"smiles": "CO[C@@H]1[C@H](OC(=O)CNC(C)C(C)(C)C)CC[C@]2(CO2)[C@H]1[C@@]1(C)OC1CC=C(C)C", "note": "(some centres unmarked) [Ex. 53, 6-O-(1,2,2-trimethylpropylamino)acetyl fumagillol]", "values": [{"measurement": "IC50", "setting": "[1]", "result": 162, "unit": "ng/mL"}]}
{"smiles": "CO[C@@H]1[C@H](OC(=O)CNC(C(C)C)C(C)C)CC[C@]2(CO2)[C@H]1[C@@]1(C)OC1CC=C(C)C", "note": "(some centres unmarked) [Ex. 54, 6-O-(1-isopropyl-2-methylpropylamino)acetyl fumagillol]", "values": [{"measurement": "IC50", "setting": "[2]", "result": 11, "unit": "ng/mL"}]}
{"smiles": "C=C(C)CNCC(=O)O[C@@H]1CC[C@]2(CO2)[C@@H]([C@@]2(C)OC2CC=C(C)C)[C@@H]1OC", "note": "(some centres unmarked) [Ex. 56, 6-O-(2-methyl-allylamino)acetyl fumagillol]", "values": [{"measurement": "IC50", "setting": "[2]", "result": 28, "unit": "ng/mL"}]}
{"smiles": "CC/C=C(C)/C=C/CNCC(=O)O[C@@H]1CC[C@]2(CO2)[C@@H]([C@@]2(C)OC2CC=C(C)C)[C@@H]1OC", "note": "(some centres unmarked) [Ex. 57, 6-O-(4-methyl-hepta-2,4-dienylamino)acetyl fumagillol]", "values": [{"measurement": "IC50", "setting": "[1]", "result": 420, "unit": "ng/mL"}]}
{"smiles": "CO[C@@H]1[C@H](OC(=O)CNC(C)CCC=C(C)C)CC[C@]2(CO2)[C@H]1[C@@]1(C)OC1CC=C(C)C", "note": "(some centres unmarked) [Ex. 58, 6-O-(1,5-dimethyl-4-hexenylamino)acetyl fumagillol]", "values": [{"measurement": "IC50", "setting": "[1]", "result": 415, "unit": "ng/mL"}]}
{"smiles": "C#CC(C)(C)NCC(=O)O[C@@H]1CC[C@]2(CO2)[C@@H]([C@@]2(C)OC2CC=C(C)C)[C@@H]1OC", "note": "(some centres unmarked) [Ex. 59, 6-O-(1,1-dimethyl-2-propinylamino)acetyl fumagillol]", "values": [{"measurement": "IC50", "setting": "[1]", "result": 174, "unit": "ng/mL"}]}
{"smiles": "CO[C@@H]1[C@H](OC(=O)CNCCBr)CC[C@]2(CO2)[C@H]1[C@@]1(C)OC1CC=C(C)C", "note": "(some centres unmarked) [Ex. 61, 6-O-(2-bromoethylamino)acetyl fumagillol]", "values": [{"measurement": "IC50", "setting": "HUVEC", "result": 2800, "unit": "ng/mL"}]}
{"smiles": "CO[C@@H]1[C@H](OC(=O)CNC#CCl)CC[C@]2(CO2)[C@H]1[C@@]1(C)OC1CC=C(C)C", "note": "(some centres unmarked) [Ex. 62, 6-O-(chloroethynylamino)acetyl fumagillol]", "values": [{"measurement": "IC50", "setting": "[1]", "result": 340, "unit": "ng/mL"}]}
{"smiles": "CO[C@@H]1[C@H](OC(=O)CNC2CC2)CC[C@]2(CO2)[C@H]1[C@@]1(C)OC1CC=C(C)C", "note": "(some centres unmarked) [Ex. 63, 6-O-(cyclopropylamino)acetyl fumagillol]", "values": [{"measurement": "IC50", "setting": "[1]", "result": 0.008, "unit": "ng/mL"}]}
{"smiles": "CO[C@@H]1[C@H](OC(=O)CNC2CCC2)CC[C@]2(CO2)[C@H]1[C@@]1(C)OC1CC=C(C)C", "note": "(some centres unmarked) [Ex. 64, 6-O-(cyclobutylamino)acetyl fumagillol]", "values": [{"measurement": "IC50", "setting": "[1]", "result": 0.07, "unit": "ng/mL"}]}
{"smiles": "CO[C@@H]1[C@H](OC(=O)CNC2CCCC2)CC[C@]2(CO2)[C@H]1[C@@]1(C)OC1CC=C(C)C", "note": "(some centres unmarked) [Ex. 65, 6-O-(cyclopentylamino)acetyl fumagillol]", "values": [{"measurement": "IC50", "setting": "[1]", "result": 250, "unit": "ng/mL"}]}
{"smiles": "CO[C@@H]1[C@H](OC(=O)CNC2CCCCC2)CC[C@]2(CO2)[C@H]1[C@@]1(C)OC1CC=C(C)C", "note": "(some centres unmarked) [Ex. 66, 6-O-(cyclohexylamino)acetyl fumagillol]", "values": [{"measurement": "IC50", "setting": "[1]", "result": 0.6, "unit": "ng/mL"}]}
{"smiles": "CO[C@@H]1[C@H](OC(=O)CNC2CCC(C(C)(C)C)CC2)CC[C@]2(CO2)[C@H]1[C@@]1(C)OC1CC=C(C)C", "note": "(some centres unmarked) [Ex. 67, 6-O-(4-tert-butyl-cyclohexylamino)acetyl fumagillol]", "values": [{"measurement": "IC50", "setting": "[1]", "result": 0.06, "unit": "ng/mL"}]}
{"smiles": "CO[C@@H]1[C@H](OC(=O)CNC(C)CN(C)C)CC[C@]2(CO2)[C@H]1[C@@]1(C)OC1CC=C(C)C", "note": "(some centres unmarked) [Ex. 68, 6-O-(2-dimethylamino-1-methylethylamino)acetyl fumagillol]", "values": [{"measurement": "IC50", "setting": "[1]", "result": 240, "unit": "ng/mL"}]}
{"smiles": "CO[C@@H]1[C@H](OC(=O)CNCC(C)N(C)C)CC[C@]2(CO2)[C@H]1[C@@]1(C)OC1CC=C(C)C", "note": "(some centres unmarked) [Ex. 69, 6-O-(2-dimethylamino-propylamino)acetyl fumagillol]", "values": [{"measurement": "IC50", "setting": "[1]", "result": 260, "unit": "ng/mL"}]}
{"smiles": "CO[C@@H]1[C@H](OC(=O)CNCC(C)(C)OC)CC[C@]2(CO2)[C@H]1[C@@]1(C)OC1CC=C(C)C", "note": "(some centres unmarked) [Ex. 70, 6-O-(2-methoxy-2-methyl-propylamino)acetyl fumagillol]", "values": [{"measurement": "IC50", "setting": "[1]", "result": 178, "unit": "ng/mL"}]}
{"smiles": "CO[C@@H]1[C@H](OC(=O)CNCC(C)=O)CC[C@]2(CO2)[C@H]1[C@@]1(C)OC1CC=C(C)C", "note": "(some centres unmarked) [Ex. 71, 6-O-(2-oxo-propylamino)acetyl fumagillol]", "values": [{"measurement": "IC50", "setting": "[1]", "result": 260, "unit": "ng/mL"}]}
{"smiles": "CO[C@@H]1[C@H](OC(=O)CNC(C)(C)CC(C)=O)CC[C@]2(CO2)[C@H]1[C@@]1(C)OC1CC=C(C)C", "note": "(some centres unmarked) [Ex. 72, 6-O-(1,1-dimethyl-3-oxobutylamino)acetyl fumagillol]", "values": [{"measurement": "IC50", "setting": "[1]", "result": 330, "unit": "ng/mL"}]}
{"smiles": "CCOC(=O)CNCC(=O)O[C@@H]1CC[C@]2(CO2)[C@@H]([C@@]2(C)OC2CC=C(C)C)[C@@H]1OC", "note": "(some centres unmarked) [Ex. 73, 6-O-(ethyl-2-aminoacetate)acetyl fumagillol]", "values": [{"measurement": "IC50", "setting": "[1]", "result": 1200, "unit": "ng/mL"}]}
{"smiles": "COC(=O)C(C)NCC(=O)O[C@@H]1CC[C@]2(CO2)[C@@H]([C@@]2(C)OC2CC=C(C)C)[C@@H]1OC", "note": "(some centres unmarked) [Ex. 74, 6-O-(alaninemethylesteramino)acetyl fumagillol]", "values": [{"measurement": "IC50", "setting": "[1]", "result": 800, "unit": "ng/mL"}]}
{"smiles": "COC(=O)C(NCC(=O)O[C@@H]1CC[C@]2(CO2)[C@@H]([C@@]2(C)OC2CC=C(C)C)[C@@H]1OC)C(C)(C)C", "note": "(some centres unmarked) [Ex. 75, 6-O-(methyl-2-amino-3,3-dimethylbutanoate)acetyl fumagillol]", "values": [{"measurement": "IC50", "setting": "[1]", "result": 2400, "unit": "ng/mL"}]}
{"smiles": "C=CCC(NCC(=O)O[C@@H]1CC[C@]2(CO2)[C@@H]([C@@]2(C)OC2CC=C(C)C)[C@@H]1OC)C(=O)OC", "note": "(some centres unmarked) [Ex. 76, 6-O-(allylglycinemethylester)acetyl fumagillol]", "values": [{"measurement": "IC50", "setting": "[2]", "result": 1490, "unit": "ng/mL"}]}
{"smiles": "COC(CNCC(=O)O[C@@H]1CC[C@]2(CO2)[C@@H]([C@@]2(C)OC2CC=C(C)C)[C@@H]1OC)OC", "note": "(some centres unmarked) [Ex. 77, 6-O-(2,2-dimethoxyethylamino)acetyl fumagillol]", "values": [{"measurement": "IC50", "setting": "[1]", "result": 330, "unit": "ng/mL"}]}
{"smiles": "CO[C@@H]1[C@H](OC(=O)CCl)CC[C@]2(CO2)[C@H]1[C@@]1(C)OC1CC=C(C)C", "note": "(some centres unmarked) [Intermediate, 6-O-(chloro)acetyl fumagillol]", "values": [{"measurement": "IC50", "setting": "[1]", "result": 2000, "unit": "ng/mL"}]}
{"smiles": "CO[C@@H]1[C@H](OC(=O)NC(=O)CCl)CC[C@]2(CO2)[C@H]1[C@@]1(C)O[C@@H]1CC=C(C)C", "note": "[TNP-470, reference compound]", "values": [{"measurement": "IC50", "setting": "[1]", "result": 29, "unit": "ng/mL"}]}
